The source of these data is publication PMC3003306 (Structure (London, England : 1993), 2010).

SMILES strings stand for the structures.

The assay addresses T1, IGPS (HisF-HisH heterodimer), glutaminase site in HisH (Thermotoga maritima, UniProt Q9X0C8).
T1 sequence (Q9X0C8 1-201): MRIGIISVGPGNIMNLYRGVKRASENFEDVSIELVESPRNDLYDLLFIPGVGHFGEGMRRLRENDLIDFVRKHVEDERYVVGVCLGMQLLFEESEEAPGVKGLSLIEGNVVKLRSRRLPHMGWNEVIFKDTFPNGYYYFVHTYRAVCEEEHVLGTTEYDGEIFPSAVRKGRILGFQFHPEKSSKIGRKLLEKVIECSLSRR
T1 sequence (Q9X0C6 1-253 partner): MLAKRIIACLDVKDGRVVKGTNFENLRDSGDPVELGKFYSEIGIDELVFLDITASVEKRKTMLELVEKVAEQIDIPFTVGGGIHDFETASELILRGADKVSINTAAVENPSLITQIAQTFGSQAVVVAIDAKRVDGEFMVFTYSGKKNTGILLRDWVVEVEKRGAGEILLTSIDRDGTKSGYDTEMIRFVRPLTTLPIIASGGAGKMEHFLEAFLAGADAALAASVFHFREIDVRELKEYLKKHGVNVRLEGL
Nature of the assay: covalent modification of HisH C84 followed by DTNB analysis. The conditions noted are these: 1.5 molar equivalents acivicin, room temperature, HisH active site nucleophile C84. It is filed as binding.

For the compound `N[C@H](C(=O)O)[C@@H]1CC(Cl)=NO1` [acivicin], the “covalent modification of HisH C84 followed by DTNB analysis; NMR” value is recorded as “IGPS (HisH-C84) was covalently modified with acivicin”.
